# Results taken from patent US11548868B2, “Heterocyclic compounds, compositions comprising heterocyclic compound, and methods of use thereof” (JS INNOPHARM (SHANGHAI) LTD, priority 2017, dated 2023).
# Target: T1, TDO2 in A172 cancer cells (Homo sapiens, UniProt P48775)
# T1 construct: endogenous in cells; host or cells: A172 cancer cells
# Assay: TDO2 Cellular Assay (kynurenine production in A172 cancer cells)
# Format: cell-based
# Conditions: L-Trp 1 mM, 24 hours incubation, kynurenine at 490 nm
# Method: A172 cancer cells (3×10^4 per well) in 85 μL DMEM medium containing 10% FBS were seeded in a 96-well plate and incubated at 95% humidity and 5% CO2 at 37° C. for overnight. On the next day, L-Trp solution (10 μL, 1 mM final concentration) and serial dilutions of the test compounds and DMEM medium resulting in a total final volume of 100 μL each well. The test compounds were dissolved in DMSO and successively diluted with pH7.5 butter (with final DMSO concentration of 0.25%) resulting in final concentrations of the test compounds ranging from 0 to 25 μM (0, 2.5, 7.5, 25, 75, 250, 750, 2500, 7500, & 25000 nM). After 24 hours of incubation, 70 uL of the supernatant per well was transferred to a new 96 well plate. 8 μL of trichloroacetic acid (6.1 N) was mixed into each well and incubated at 50° C. for 30 min to hydrolyze N-formylkynurenine to kynurenine. The reaction mixture was then centrifuged for 10 min at 2500 RPM to remove sediments. 50 μL of the supernatant per well was transferred to another 96 well plate and mixed with 50 μL of 2% (w/v) p-dimethylaminobenzaldehyde in acetic acid. The yellow color derived from kynurenine was measured at 490 nm using a microplate reader. Percent inhibition of the test compounds was determined by measuring the decrease in kynurenine as compared to the control of DMSO vehicle, which was calculated by formula of (WC−WT)/WC, where WC is the mean absorbance of the control well minus blank well; WT is the mean absorbance of the test well minus the blank well. Data was analyzed by GraphPad Prism 5 and the IC50 values were obtained by non-linear regression.
# The IC50 values of for Compounds disclosed are listed in Table 2, A′: ≤0.5 μM; B′: >0.5 μM and ≤1 μM; C′: >1.0 μM and ≤5 uM; and D′: >5 μM.
# T1 sequence (P48775 whole entry): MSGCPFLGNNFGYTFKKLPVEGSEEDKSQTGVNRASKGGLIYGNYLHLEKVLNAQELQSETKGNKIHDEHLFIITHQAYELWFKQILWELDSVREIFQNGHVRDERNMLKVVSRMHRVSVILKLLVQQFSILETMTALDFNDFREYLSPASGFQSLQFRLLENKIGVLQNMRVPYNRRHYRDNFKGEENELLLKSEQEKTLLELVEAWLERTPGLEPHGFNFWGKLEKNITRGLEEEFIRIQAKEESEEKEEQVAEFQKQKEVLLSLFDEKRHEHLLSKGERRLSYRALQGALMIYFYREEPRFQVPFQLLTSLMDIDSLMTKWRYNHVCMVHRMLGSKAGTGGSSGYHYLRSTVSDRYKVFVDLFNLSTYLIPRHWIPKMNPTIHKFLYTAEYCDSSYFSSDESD
row,IC50 [µM],SMILES
1,≤ 0.5,"CC1(C)C2CN(c3cc(Cl)cc4[nH]ncc34)CC2CN1S(C)(=O)=O (racemic) [Example 1, 6-chloro-4-(4,4-dimethyl-5-(methylsulfonyl)hexahydropyrrolo[3,4-c]pyrrol-2(1H)-yl)-1H-indazole]"
2,≤ 0.5,"CS(=O)(=O)N1C[C@@H]2CC(c3cc(Cl)cc4[nH]ncc34)=C[C@@H]2C1 (racemic) [Example 5, Racemic-6-chloro-4-((3aR,6aS)-2-(methylsulfonyl)-1,2,3,3a,4,6a-hexahydrocyclopenta[c]pyrrol-5-yl)-1H-indazole]"
3,≤ 0.5,"CC1(C)[C@H]2CN(c3cc(Cl)cc4[nH]ncc34)C[C@H]2CN1C(N)=O (racemic) [Example 31, Racemic-(3aS,6aR)-5-(6-chloro-1H-indazol-4-yl)-1,1-dimethylhexahydropyrrolo[3,4-c]pyrrole-2(1H)-carboxamide]"
4,1 to 5,"CC1(C)[C@H]2CN(c3cc(Cl)cn4cncc34)C[C@H]2CN1S(C)(=O)=O (racemic) [Example 49, Racemic-6-chloro-8-((3aR,6aS)-4,4-dimethyl-5-(methylsulfonyl)hexahydropyrrolo[3,4-c]pyrrol-2(1H)-yl)imidazo[1,5-a]pyridine]"
5,> 5,"CC1(C)[C@H]2CN(c3c(C(F)(F)F)ccn4cncc34)C[C@H]2CN1S(C)(=O)=O (racemic) [Example 57, Racemic-8-((3aR,6aS)-4,4-dimethyl-5-(methylsulfonyl)hexahydropyrrolo[3,4-c]pyrrol-2(1H)-yl)-7-(trifluoromethyl)imidazo[1,5-a]pyridine]"
6,> 5,"CC(=O)N1C[C@@H]2CN(c3c(C(F)(F)F)ccn4cncc34)C[C@@H]2C1(C)C (racemic) [Example 58, Racemic-1-((3aS,6aR)-1,1-dimethyl-5-(7-(trifluoromethyl)imidazo[1,5-a]pyridin-8-yl)hexahydropyrrolo[3,4-c]pyrrol-2(1H)-yl)ethanone]"
7,> 5,"CC(=O)N1C[C@H]2C[C@@H](c3cc(C(F)(F)F)cn4cncc34)C[C@H]2C1 [Example 4, 1-((3aR,5r,6aS)-5-(6-(trifluoromethyl)imidazo[1,5-a]pyridin-8-yl)hexahydrocyclopenta[c]pyrrol-2(1H)-yl)ethanone]"
8,1 to 5,"CC1(C)C2CN(c3cc(Cl)cc4[nH]ncc34)CC2CN1S(=O)(=O)c1ccc(C#N)cc1 (stereo not shown) [Example 26, 4-(5-(6-chloro-1H-indazol-4-yl)-1,1-dimethylhexahydropyrrolo[3,4-c]pyrrol-2(1H)-ylsulfonyl)benzonitrile]"
9,0.5 to 1,"CC1(C)C2CN(c3cc(Cl)cc4[nH]ncc34)CC2CN1C(=O)C1CC1 (stereo not shown) [Example 29, (5-(6-chloro-1H-indazol-4-yl)-1,1-dimethylhexahydropyrrolo[3,4-c]pyrrol-2(1H)-yl)(cyclopropyl)methanone]"
10,≤ 0.5,"O[C@@]1(c2cc(Cl)cc3[nH]ncc23)C[C@H]2CCC[C@H]2C1 [Example 30, (2r,3aR,6aS)-2-(6-chloro-1H-indazol-4-yl)octahydropentalen-2-ol]"
11,> 5,"N#Cc1ccc(S(=O)(=O)N2C[C@H]3CN(c4cc(Cl)cc5[nH]ncc45)C[C@H]3C2)cc1 [Example 33, 4-(((3aR,6aS)-5-(6-chloro-1H-indazol-4-yl)hexahydropyrrolo[3,4-c]pyrrol-2(1H)-yl)sulfonyl)benzonitrile]"
12,> 5,"N#Cc1ccc(C(=O)N2C[C@@H]3CN(c4cc(Cl)cc5[nH]ncc45)C[C@@H]3C2)cc1 [Example 34, 4-((3aR,6aS)-5-(6-chloro-1H-indazol-4-yl)octahydropyrrolo[3,4-c]pyrrole-2-carbonyl)benzonitrile]"
13,≤ 0.5,"O=S(=O)(C1CC1)N1C[C@@H]2C[C@@](O)(c3cc(Cl)cc4[nH]ncc34)C[C@@H]2C1 [Example 37, (3aR,5r,6aS)-5-(6-chloro-1H-indazol-4-yl)-2-(cyclopropylsulfonyl)octahydrocyclopenta[c]pyrrol-5-ol]"
